Results on one compound are retold here after PMC9068870, “Modulation of Morphine Analgesia, Antinociceptive Tolerance, and Mu-Opioid Receptor Binding by the Cannabinoid CB2 Receptor Agonist O-1966” (Frontiers in Pharmacology, 2022).

For experiment [1], the target named is T1, rat mu-opioid receptor (rMOR) (Rattus norvegicus, UniProt P33535).
T1 construct: gene Oprm1; stably expressed in CHO cells (CHO-rMOR); cell membranes
Put plainly: […]GTPγS binding, CHO-rMOR membranes. The experiment is classed as biochemical. The note with it: O-1966 10 min before 0.5 µM morphine; 10 µM GDP, 50 mM HEPES, 100 mM NaCl, 5 mM MgCl2, 30 °C, 1 h; negative allosteric mode suggested only. (In general: GTPγS resists hydrolysis and so accumulates on activated G proteins.)

In experiment [2] the target is T1, rat mu-opioid receptor (rMOR). Briefly: competition with [3H]DAMGO, filtration, CHO-rMOR membranes. It is filed as binding.

T1 sequence (P33535 whole entry): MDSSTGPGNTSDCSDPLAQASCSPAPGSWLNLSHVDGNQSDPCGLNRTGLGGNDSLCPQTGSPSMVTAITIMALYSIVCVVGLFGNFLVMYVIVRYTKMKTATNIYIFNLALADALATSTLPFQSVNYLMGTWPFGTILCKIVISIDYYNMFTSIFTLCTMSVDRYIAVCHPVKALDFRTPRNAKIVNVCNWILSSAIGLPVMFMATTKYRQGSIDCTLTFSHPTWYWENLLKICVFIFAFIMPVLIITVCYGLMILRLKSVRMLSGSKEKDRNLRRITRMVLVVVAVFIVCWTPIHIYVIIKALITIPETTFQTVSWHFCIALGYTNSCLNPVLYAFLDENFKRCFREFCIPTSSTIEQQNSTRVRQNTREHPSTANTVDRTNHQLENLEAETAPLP

Usually Ki stands for a dissociation constant, usually derived from enzyme kinetics or from competition with a known ligand. Consider `CCCCCCC(C)(C)c1cc(OC)c(C2(O)CCCC(C)C2)c(OC)c1` (centres unmarked) [O-1966], for which, in experiment [1], the “% reduction of morphine response at 10 μM” value is 20%. Further, the inhibition constant (Ki) in experiment [2] turned out to be 3.04 µM.
